From a melting point compilation (Tetko et al.; mined from patent text by program, amines drawn as free bases though some values may be those of a salt)

**Q.** For CCOc1cccc(CC(=O)O)c1OCCCc1cn(-c2ccc(C(F)(F)F)cn2)nc1C1CCCCC1, which melting point is on record?
**A.** 156 to 157 °C

**Q.** For NC(=O)CNC(=O)c1cccc(-c2cccc3sc(Cc4cccc(C(F)(F)F)c4)nc23)c1, which melting point is on record?
**A.** 130 to 131 °C

**Q.** Which melting point does the source give for Clc1cc(NC2CCCC2)nc(NC2CCCC2)n1 here?
**A.** 94 to 98 °C

**Q.** For O=C(CNC(=O)c1ccc([N+](=O)[O-])c(F)c1)OCc1ccccc1, which melting point is on record?
**A.** 118 to 120 °C

**Q.** With O=C(Nc1ncnc2c1ncn2CC(O)CF)c1ccccc1 (racemic) as the compound, how does the melting point read?
**A.** 197 °C

**Q.** With O=C(Nc1cccc(OCc2cccnc2)c1)N1CCOCC1 as the compound, how does the melting point read?
**A.** 58 to 62 °C

**Q.** With COC(=O)/C(N)=C/C(=O)/C=C/c1ccc(Cl)cc1 as the compound, how does the melting point read?
**A.** 112 to 113 °C

**Q.** With O=c1c2c[nH]c3ccccc3c-2nn1-c1ncccn1 as the compound, how does the melting point read?
**A.** > 360 °C

**Q.** Which melting point does the source give for Cc1ccc(Sc2ccccc2)c(C(=O)O)c1 here?
**A.** 156 to 157 °C

**Q.** For Nc1nonc1-c1nc2ccccc2n1CC(=O)C=Cc1ccccc1, which melting point is on record?
**A.** 176 to 180 °C

**Q.** Which melting point does the source give for CCN(CC)C1=NS(=O)(=O)c2cccc(OC(F)F)c21 here?
**A.** 93 to 94 °C

**Q.** Which melting point does the source give for Nc1nc2ccccc2c2c1ncn2CC1CCCCO1 (stereo not drawn) here?
**A.** 206 to 210 °C

**Q.** For COc1cc2c(cc1OC)Sc1ccc(Cl)cc1C(Cl)C2 (stereo not drawn), which melting point is on record?
**A.** 139 to 141 °C

**Q.** For O=C(Nc1cccnc1)N1CCN(c2nc(-c3ccccc3)cs2)CC1, which melting point is on record?
**A.** 74 to 75 °C

**Q.** For O=C(O)[C@H](Cc1ccc(C(F)(F)F)cc1)[C@@H](O)c1ccoc1 (racemic), which melting point is on record?
**A.** 104 to 105 °C

**Q.** With Cc1cc(OCc2cnc(-c3ccc(OC(F)(F)F)cc3)nc2C(F)(F)F)ccc1OC(C)(C)C(=O)O as the compound, how does the melting point read?
**A.** 154 °C

**Q.** For COc1cccc(OC)c1-c1cc(C(=O)NC2(C(=O)O)C3CC4CC(C3)CC2C4)nn1-c1ccc(NC=O)c2ccccc12 (stereo not drawn), which melting point is on record?
**A.** 270 °C

**Q.** Which melting point does the source give for Cc1ccc2nc(-c3ccc(N)c(I)c3)sc2c1 here?
**A.** 176 to 178 °C

**Q.** Which melting point does the source give for COC(=O)[C@H](Cc1ccc(NC(=O)c2c(Cl)cccc2Cl)cc1)NC(=S)C1(CCCCS(C)(=O)=O)CCCC1 here?
**A.** 200 to 202 °C

**Q.** With O=C1c2ccc(Cl)cc2C(=O)N1CCN1CCC(c2noc3cc(F)ccc23)CC1 as the compound, how does the melting point read?
**A.** 170 to 171 °C

**Q.** For Oc1ccc(-c2ncc3ncc(Nc4ccncc4)cc3n2)cc1, which melting point is on record?
**A.** > 268 °C

**Q.** For CCC[C@H](C)C(=O)O[C@H]1C[C@H](O)C=C2C=C[C@H](C)[C@H](CC[C@@H]3C[C@@H](O)CC(=O)O3)[C@H]21, which melting point is on record?
**A.** 134 °C

**Q.** With Cc1c(C)c2c(c(C)c1NS(C)(=O)=O)CC(C)(C)O2 as the compound, how does the melting point read?
**A.** 159 to 160 °C

**Q.** Which melting point does the source give for COC(=O)Cn1c(C(=O)OCc2ccccc2)cc2ccccc21 here?
**A.** 94 °C

**Q.** For CC(C)(C)CC(=O)c1c(-c2ccc3cc(O)ccc3c2)oc2ccccc12, which melting point is on record?
**A.** 205 to 207 °C

**Q.** For CCNC1CCN(c2nc(N3CCOCC3)c3ncnc(N(C)Cc4ccccc4)c3n2)CC1, which melting point is on record?
**A.** 92 to 94 °C

**Q.** Which melting point does the source give for NC(=O)N1C(=O)C(=C(OC(=O)c2ccco2)c2cccs2)c2cc(F)c(Cl)cc21 here?
**A.** 215 to 216 °C

**Q.** With CCCOc1ccc(C(=O)CCC(=O)O)cc1 as the compound, how does the melting point read?
**A.** 116 to 117 °C

**Q.** For CCCc1nc2c(N)nc3ccccc3c2n1CC(C)(C)C(N)=O, which melting point is on record?
**A.** 219 to 221 °C

**Q.** For CS(=O)(=O)NCC(=O)CCN1CCC(C2c3ncc(Br)cc3CCc3cc(Cl)cc(Cl)c32)CC1 (single isomer, unassigned; (+)), which melting point is on record?
**A.** 110 to 113 °C

**Q.** With COc1ccc(CNc2nc(C)c(-c3ccncc3)s2)cc1OC as the compound, how does the melting point read?
**A.** 134 to 135 °C

**Q.** Which melting point does the source give for CC(C)CC1(C(CCN2C(=O)c3c(F)ccc(F)c3C2=O)C(=O)NO)CCN(CCc2ccccc2)C1=O (stereo not drawn) here?
**A.** 131 to 132 °C

**Q.** For Cc1ccc(C=NNc2ncnc3ccccc23)cc1, which melting point is on record?
**A.** 211 to 214 °C

**Q.** With Cc1c(Cc2ccncc2)nnc(Nc2cccc(Cl)c2)c1C as the compound, how does the melting point read?
**A.** 164 to 167 °C

**Q.** Which melting point does the source give for CCN(CC)CCNC(=O)c1cc(Cl)c(N)cc1OCCOC here?
**A.** 108 to 110 °C

**Q.** With CC1(C)O[C@@H](CN=C2OCc3ccccc32)[C@H](CN=C2OCc3ccccc32)O1 as the compound, how does the melting point read?
**A.** 204 °C

**Q.** Which melting point does the source give for NC(=O)N1C(=O)C(C(=O)c2sccc2Br)c2cc(Cl)ccc21 (stereo not drawn) here?
**A.** 216 to 217 °C

**Q.** Which melting point does the source give for CCOC(=O)C(=O)c1cc(OC)c(OCOC)c2c(Cc3ccccc3)cccc12 here?
**A.** 70 to 72 °C

**Q.** With COc1ncc(OC)c(NN)n1 as the compound, how does the melting point read?
**A.** 115 to 117 °C

**Q.** Which melting point does the source give for Cc1cccc2nc(-c3cc(C(F)F)nn3-c3ccc(S(N)(=O)=O)cc3)sc12 here?
**A.** 264 to 265 °C

**Q.** With CCC1(CCCCCl)C(=O)Nc2ccccc21 (stereo not drawn) as the compound, how does the melting point read?
**A.** 104 to 105 °C

**Q.** Which melting point does the source give for Nc1nc(Cn2ncc3cc(C(=O)NC[C@H](NS(=O)(=O)c4cccc5ccccc45)C(=O)O)ccc32)cc(=O)[nH]1 here?
**A.** 94 to 95 °C

**Q.** Which melting point does the source give for C=CS(=O)(=O)CC(COCCCCCCCCCCCCCCCCCC)OC (stereo not drawn) here?
**A.** 47 to 49 °C

**Q.** For CCOC(=O)c1ccccc1N(CC(=O)N(C)c1ccccc1)C(=O)C(F)(F)F, which melting point is on record?
**A.** 95 °C

**Q.** For CS(=O)(=O)c1ccc(-c2c(-c3ccc(O)cc3)[nH]c3ccc(Cl)cc23)cc1, which melting point is on record?
**A.** 271 to 273 °C

**Q.** For CCOC(=O)N(O)C(C)c1cc(C(C)(C)C)c(O)c(C(C)(C)C)c1 (stereo not drawn), which melting point is on record?
**A.** 130 to 132 °C

**Q.** For Cn1ncnc1COc1nc2c(cc1-c1cccs1)nnn2-c1ccccc1F, which melting point is on record?
**A.** 160 to 162 °C

**Q.** With N#CSc1nc(C(F)(F)F)nc2ccccc12 as the compound, how does the melting point read?
**A.** 134 to 136 °C
